For orientation: pIC50 means −log10 of the IC50, conventionally taken in molar units. What is called IC50 is the concentration needed to halve the response being measured.

The structures appear in SMILES notation. pIC50: −log10 of the molar value. The source made the active and inactive calls. The rule behind the calls is not given here.

Here are results for seven molecules from PubChem BioAssay AID1117265 (The Scripps Research Institute Molecular Screening Center, 2014).

Chain of Trace amine-associated receptor 1 (Homo sapiens) (Q96RJ0 whole entry, looked up, the tested form may be a part): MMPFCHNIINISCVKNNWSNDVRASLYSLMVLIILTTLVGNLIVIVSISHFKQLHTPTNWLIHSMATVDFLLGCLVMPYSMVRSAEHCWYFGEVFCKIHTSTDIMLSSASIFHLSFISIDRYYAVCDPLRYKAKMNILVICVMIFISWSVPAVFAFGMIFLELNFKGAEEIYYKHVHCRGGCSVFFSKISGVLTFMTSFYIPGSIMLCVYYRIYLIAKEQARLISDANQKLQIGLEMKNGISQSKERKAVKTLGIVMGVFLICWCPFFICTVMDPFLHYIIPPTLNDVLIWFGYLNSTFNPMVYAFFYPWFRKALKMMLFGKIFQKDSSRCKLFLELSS

This test addresses Trace amine-associated receptor 1 (Homo sapiens) (UniProt Q96RJ0). In words: blockers of trace amine receptor TAAR1 – cell-based, fluorescence, MedChem round 2, late-stage follow-up (AID 1117265). The following applies: TAAR1-expressing cells, antagonist mode.
With `O=C(CCN1CCC(c2ccccc2)C1)c1ccccc1` (configuration not stated), the pIC50 is 6.12.

Regarding `Cc1ccc(C(=O)CCN2CCC(c3ccccc3)C2)cc1` (configuration not stated), the pIC50 was 6.17.

As to `COc1cc(C(=O)CCN2CCC(c3ccccc3)C2)cc(OC)c1OC` (configuration not stated), the pIC50 was 6.38.

Regarding `CC(CN1CCCC1Cc1ccccc1)C(=O)c1ccc2c(c1)OCCO2` (configuration not stated), the pIC50 is 5.53.

On to `N#Cc1c(C(F)(F)F)cc(-c2ccc(Cl)cc2)nc1SCC(=O)N1CCCC1`, for which the pIC50 is 5.97.

Consider `N#Cc1c(C(F)(F)F)cc(-c2ccc(Cl)cc2)nc1SCC(=O)N1CCCCCC1`, for which the IC50 is > 29900 nM (inactive).

On to `N#Cc1c(C(F)(F)F)cc(-c2ccc(Cl)cc2)nc1SCC(=O)Nc1ncccn1`, for which the pIC50 is 8.43.
